The source of these data is the supplement of paper PMC11061612.

In one assay the test system is A204 (Rhabdomyosarcoma). In words: Bliss excess, mean over the matrix (fraction); higher = more synergy. In outline: (§1)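 Cell lines grown in DMEM/F12 or RPMI with 10% FBS were plated in 1536-well plates and held 24 hours at 37°C, 5% CO2 before 72 hours of exposure to two-drug dose matrices, with DMSO typically at 0.2%. CellTiter-Glo 2.0 luminescence gave viability, which was converted to inhibition. Vehicle wells were set to 0 and blank wells to 1. Combination Emax is the second-highest inhibition in the matrix, and Bliss excess is the observed combination effect minus the expected EA + EB − EA·EB, where EA and EB are the single-agent effects.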

The subject of assay [1] is AU565 (Breast Carcinoma). The assay is described as above. In outline: as §1
The subject of assay [2] is CA46 (Burkitt's Lymphoma). Described as above. In outline:
as §1

In a further assay the test system is COLO-792 (Melanoma). Described as above. In outline:
as §1

Assay [3] has as its system ESO26 (Esophageal Adenocarcinoma). The description is as above. In outline: as §1
The subject of another assay is EW-7 (Ewing's Sarcoma). The description is as above. In outline:
as §1

The test system of assay [4] is JHU-022 (Oral Cavity Carcinoma). The assay is described as above. In outline:
as §1

Assay [5] has as its system LS-411N (Colorectal Carcinoma). The description is as above. In outline: as §1
In assay [6] the test system is MHH-ES-1 (Ewing's Sarcoma). The description is as above. In outline:
as §1

For another assay, the system named is NB13 (Neuroblastoma). The assay is described as above. In outline: as §1
Assay [7] relates to NCI-H1703 (Squamous Cell Lung Carcinoma). Described as above. In outline:
as §1

Assay [8] deals with NCI-H441 (Lung Adenocarcinoma). Described as above. In outline: as §1
The subject of assay [9] is NCI-H716 (Colorectal Carcinoma). The description is as above. In outline: as §1
The subject of another assay is PEO1 (Ovarian Carcinoma). The assay is described as above. In outline:
as §1

The test system of another assay is WM1552C (Melanoma). Described as above. In outline: as §1
Assay [10] deals with AU565 (Breast Carcinoma). As to the kind of experiment: combination Emax (second highest fraction inhibited in the dose matrix, 72 h); higher = more inhibition; extreme values may be limits of the assay. In outline:
as §1

In assay [11] the test system is HCC1395 (Breast Carcinoma). The assay is described as above. In outline: as §1
Assay [12] relates to LU-165 (Small Cell Lung Carcinoma). The description is as above. In outline:
as §1

Assay [13] has as its system NCI-H1703 (Squamous Cell Lung Carcinoma). Described as above. In outline:
as §1

Assay [14] concerns NCI-H2087 (Lung Adenocarcinoma). The assay is described as above. In outline: as §1
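For Bliss excess, mean over the matrix in this document: after 72 h of two-drug dosing.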

`COc1nnc2ccc(N3CCC(c4ccc(OCCN5CCN(C)C(=O)[C@H]5C)cc4)CC3)nn12` [AZD5153] + Cc1c2c(nn1C)CSCc1cc(n(C)n1)CSc1cc(c3ccccc3c1)OCCCc1c(C(=O)O)n(C)c3c-2c(Cl)ccc13 [AZD5991] (first compound max 1 µM, 7x7, partner max 1 µM): the Bliss excess with A204 (Rhabdomyosarcoma) was -0.0116; in the assay on AU565 (Breast Carcinoma) [1], -0.0342; in [2], -0.0502; with COLO-792 (Melanoma), 0.0196; in assay [3], -0.0071; with EW-7 (Ewing's Sarcoma) it was 0.07. Also, the Bliss excess in assay [4] is -0.0703; in assay [5], 0.0068; in [6], -0.0049; in the assay with NB13 (Neuroblastoma), 0.0066; in [7] it was -0.0186; in [8] it was -0.0179. Moreover, the Bliss excess in assay [9] was 0.0076; in the assay on PEO1 (Ovarian Carcinoma), -0.0209; in the assay with WM1552C (Melanoma) it was -0.0694. Moreover, the “combination Emax” value in the assay with AU565 (Breast Carcinoma) [10] was 1; in assay [11], 0.817; in assay [12], 0.65; in assay [13], 0.966; in [14], 0.453.
On to `COc1nnc2ccc(N3CCC(c4ccc(OCCN5CCN(C)C(=O)[C@H]5C)cc4)CC3)nn12` [AZD5153] + Cn1cnc2c(F)c(Nc3ccc(Br)cc3Cl)c(C(=O)NOCCO)cc21 [Selumetinib] (first compound max 1 µM, 7x7, partner max 10 µM), for which the Bliss excess in the assay on A204 (Rhabdomyosarcoma) is -0.0838; with AU565 (Breast Carcinoma) [1] it was 0.0278; in assay [2] it was -0.0282; in the assay on COLO-792 (Melanoma) it was -0.055; in assay [3], -0.0727; with EW-7 (Ewing's Sarcoma), -0.032. The Bliss excess in assay [4] was -0.0807; in assay [5], 0.0602; in [6], -0.0114; in the assay with NB13 (Neuroblastoma), -0.0616; in assay [7] it was -0.0065; in assay [8], -0.0338. Besides, the results for the Bliss excess (in assay [9]; in the assay on PEO1 (Ovarian Carcinoma); in the assay with WM1552C (Melanoma)) were 0.016, -0.0509 and -0.063, respectively. In addition, the “combination Emax” value is 0.328 in the assay on AU565 (Breast Carcinoma) [10]; 0.305 in [11]; 0.357 in assay [12]; 0.626 in assay [13]; 0.631 in assay [14].
As to `Cc1c2c(nn1C)CSCc1cc(n(C)n1)CSc1cc(c3ccccc3c1)OCCCc1c(C(=O)O)n(C)c3c-2c(Cl)ccc13` [AZD5991] + C1CN(CCC1(C(=O)N[C@@H](CCO)C2=CC=C(C=C2)Cl)N)C3=NC=NC4=C3C=CN4 [Capivasertib] (first compound max 1 µM, 7x7, partner max 3 µM), the Bliss excess in the assay with A204 (Rhabdomyosarcoma) is -0.0305; in the assay with AU565 (Breast Carcinoma) [1], 0.0218; in assay [2] it was 0.0205; in the assay with COLO-792 (Melanoma) it was 0.0076; in [3], -0.0014; with EW-7 (Ewing's Sarcoma) it was 0.0459. The Bliss excess in assay [4] is -0.0273; in assay [5], -0.0038; in [6], 0.0008; in the assay with NB13 (Neuroblastoma), 0.0719; in assay [7], 0.0157; in assay [8], -0.0023. In addition, the Bliss excess in assay [9] was 0.0001; with PEO1 (Ovarian Carcinoma), -0.0428; with WM1552C (Melanoma) it was -0.004. In addition, the “combination Emax” value in the assay with AU565 (Breast Carcinoma) [10] was 1; in assay [11], 0.911; in assay [12], 0.261; in assay [13], 0.847; in assay [14] it was 0.129.
On to `Cc1c2c(nn1C)CSCc1cc(n(C)n1)CSc1cc(c3ccccc3c1)OCCCc1c(C(=O)O)n(C)c3c-2c(Cl)ccc13` [AZD5991] + CN(C)CCCOc1ccc(-c2ccc3ncc4c(c3c2)n(C2CCOCC2)c(=O)n4C)cn1 [AZD0156] (first compound max 1 µM, 7x7, partner max 1 µM), for which the Bliss excess with A204 (Rhabdomyosarcoma) is 0.0048; in the assay on AU565 (Breast Carcinoma) [1], 0.0204; in assay [2] it was -0.0705; in the assay on COLO-792 (Melanoma) it was 0.0191; in [3] it was 0.008; in the assay with EW-7 (Ewing's Sarcoma), 0.0313. In addition, the Bliss excess in [4] was -0.0079; in assay [5] it was -0.0058; in assay [6], -0.0112; in the assay with NB13 (Neuroblastoma), 0.0007; in [7], -0.0272; in assay [8] it was 0.0031. The Bliss excess in assay [9] was 0.0233; in the assay with PEO1 (Ovarian Carcinoma), -0.0155; in the assay on WM1552C (Melanoma), -0.0444. Further, the “combination Emax” value amounted to 1 with AU565 (Breast Carcinoma) [10]; 0.537 in assay [11]; 0.286 in assay [12]; 0.892 in assay [13]; 0.201 in [14].
For the compound `Cc1c2c(nn1C)CSCc1cc(n(C)n1)CSc1cc(c3ccccc3c1)OCCCc1c(C(=O)O)n(C)c3c-2c(Cl)ccc13` [AZD5991] + C[C@@H]1COCCN1C2=NC(=NC(=C2)C3(CC3)[S@](=N)(=O)C)C4=C5C=CNC5=NC=C4 [AZD6738] (first compound max 1 µM, 7x7, partner max 10 µM), the Bliss excess in the assay on A204 (Rhabdomyosarcoma) was 0.0507; in the assay on AU565 (Breast Carcinoma) [1] it was 0.0006; in assay [2] it was -0.0252; in the assay on COLO-792 (Melanoma), 0.0026; in assay [3] it was 0.0276; with EW-7 (Ewing's Sarcoma), 0.0266. In addition, the Bliss excess is -0.0118 in assay [4]; 0.0069 in [5]; 0.0135 in assay [6]; 0.012 with NB13 (Neuroblastoma); -0.0108 in assay [7]; 0.0073 in [8]. For the same compound, the Bliss excess in [9] was 0.0138; in the assay with PEO1 (Ovarian Carcinoma) it was 0.0062; with WM1552C (Melanoma) it was -0.0084. Also, the “combination Emax” value with AU565 (Breast Carcinoma) [10] amounted to 1; in assay [11], 0.918; in [12] it was 0.321; in assay [13], 0.961; in assay [14], 0.588.
With `Cc1c2c(nn1C)CSCc1cc(n(C)n1)CSc1cc(c3ccccc3c1)OCCCc1c(C(=O)O)n(C)c3c-2c(Cl)ccc13` [AZD5991] + C[C@@H](Nc1cc(F)cc(F)c1)c1cc(C(=O)N(C)C)cc2c(=O)cc(N3CCOCC3)oc12 [AZD8186] (first compound max 1 µM, 7x7, partner max 3 µM), the Bliss excess with A204 (Rhabdomyosarcoma) was -0.0051; with AU565 (Breast Carcinoma) [1] it was 0.0418; in assay [2], -0.0611; in the assay on COLO-792 (Melanoma) it was 0.0218; in assay [3] it was -0.0171; with EW-7 (Ewing's Sarcoma), -0.0178. For the same compound, the Bliss excess in assay [4] was -0.0211; in assay [5] it was 0.0064; in [6] it was -0.0142; in the assay with NB13 (Neuroblastoma), 0.0039; in assay [7], -0.0012; in assay [8], -0.0189. Besides, the Bliss excess in [9] was -0.0335; in the assay on PEO1 (Ovarian Carcinoma), -0.008; with WM1552C (Melanoma) it was 0.0005. The “combination Emax” value in the assay with AU565 (Breast Carcinoma) [10] stood at 1; in assay [11], 0.736; in assay [12], 0.226; in assay [13], 0.87; in assay [14], 0.167.
As to `Cc1c2c(nn1C)CSCc1cc(n(C)n1)CSc1cc(c3ccccc3c1)OCCCc1c(C(=O)O)n(C)c3c-2c(Cl)ccc13` [AZD5991] + Cc1cc2ncnn2cc1Nc1ncc2c(n1)n(C1CCOCC1)c(=O)n2C [AZD7648] (first compound max 1 µM, 7x7, partner max 10 µM), the Bliss excess is -0.0466 in the assay with A204 (Rhabdomyosarcoma); -0.0172 with AU565 (Breast Carcinoma) [1]; 0.0187 in assay [2]; 0.0234 with COLO-792 (Melanoma); -0.0372 in assay [3]; -0.0105 in the assay with EW-7 (Ewing's Sarcoma). In addition, the Bliss excess in assay [4] is -0.028; in assay [5] it was -0.0492; in assay [6], -0.0323; with NB13 (Neuroblastoma), 0.0153; in [7] it was 0.0168; in assay [8] it was -0.0529. For the same compound, the Bliss excess in assay [9] is -0.0646; in the assay with PEO1 (Ovarian Carcinoma) it was -0.0279; in the assay on WM1552C (Melanoma), -0.0762. In addition, the “combination Emax” value is 1 in the assay with AU565 (Breast Carcinoma) [10]; 0.545 in assay [11]; 0.265 in assay [12]; 0.891 in assay [13]; 0.187 in assay [14].
